# Assay results published in US9937136B2, “Methods for treating radiation induced gastrointestinal tract injury” (RDD PHARMA LTD., priority 2013, dated 2018).
# Tested on: radiation induced gastrointestinal tract injury
# Assay: Radiation-induced gastrointestinal tract injury in mice, mucosal alteration histological scoring
# Type: in vivo, male C57BL/6 mice
# Details: enemas 75 mg/kg body weight for 9 days from day of irradiation; Cs-137 12 Gy to pelvic area; versus saline enemas
# Method: Fourteen male C57BL/6 mice were treated with enemas containing either 75 mg/kg body weight of Mesna or saline as a control for 9 days post-exposure to Cs-137 radiation (12 Gy) in the pelvic area. Radiation Injury Histological Scoring (0=no change, 3=severe change) was employed to assess treatment efficacy. The present invention is based in part on the unexpected finding that the rectal administration of Mesna to mice experiencing radiation induced gastrointestinal tract injury, reduces symptoms of the condition. In the present study, 14 male C57BL/6 mice were randomly divided into two groups—treatment group and control group. The pelvic area (containing the ano-rectal part of the intestine) of each mouse was exposed to a Cs-137 source and irradiated over 2 minutes at a rate of 6 Gy/min (a 12 Gy dose). Starting from the day of irradiation and for a period of 9 days, mice in the treatment group received enemas containing Mesna at a dose of 75 mg/kg body weight. Animals in the control group received saline enemas as a control. Animals were sacrificed nine days post irradiation and gross necropsy of the anus, rectum and colon was performed and documented by high resolution color pictures. […]
smiles,measurement,value
"O=S(=O)([O-])CCS.[Na+] [Mesna, sodium 2-sulfanylethanesulfonate]","mucosal alteration score (0=no change, 3=severe change)",significantly reduced
